# Measurements from patent publication US20080261977A1, “Pyrimidine Derivatives as Cannabinoid Receptor Modulators” (priority 2004, published 2008).
# pEC50: −log10 of the molar value. Structures can show the parent of a compound that is named as a salt. Where two headings read alike, the source gives them in different places.
# Molecular target: T1, human cannabinoid CB2 receptor (Homo sapiens, UniProt P34972)
# T1 construct: expressed in transfected cells; host or cells: Saccharomyces cerevisiae strain MMY23 (cassette integrated at the ura3 locus; chimeric Gpa1/Gαi3)
# T1 sequence (P34972 whole entry): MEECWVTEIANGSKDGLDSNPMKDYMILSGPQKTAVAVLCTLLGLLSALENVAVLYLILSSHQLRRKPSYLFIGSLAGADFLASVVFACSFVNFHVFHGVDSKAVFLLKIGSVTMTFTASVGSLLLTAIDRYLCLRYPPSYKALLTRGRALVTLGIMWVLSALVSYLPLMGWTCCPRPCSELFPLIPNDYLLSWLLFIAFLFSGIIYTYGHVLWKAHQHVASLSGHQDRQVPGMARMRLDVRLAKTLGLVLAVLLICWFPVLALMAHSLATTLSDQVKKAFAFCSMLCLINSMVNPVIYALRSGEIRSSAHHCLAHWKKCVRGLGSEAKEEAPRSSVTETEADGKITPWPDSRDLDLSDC
# Experiment: Cannabinoid CB2 receptor agonist activity, yeast (Saccharomyces cerevisiae) cells expressing the receptor, FDGlu fluorescence
# Type: cell-based
# Details: for Emax: read-out: efficacy (Emax relative to HU210) at the cloned human cannabinoid CB2 receptor
# Experimental: The cannabinoid CB2 receptor agonist activity of the compounds of formula (I) was determined in accordance with the following experimental method.
# Yeast (Saccharomyces cerevisiae) cells expressing the human cannabinoid CB2 receptor were generated by integration of an expression cassette into the ura3 chromosomal locus of yeast strain MMY23. This cassette consisted of DNA sequence encoding the human CB2 receptor flanked by the yeast GPD promoter to the 5′ end of CB2 and a yeast transcriptional terminator sequence to the 3′ end of CB2. MMY23 expresses a yeast/mammalian chimeric G-protein alpha subunit in which the C-terminal 5 amino acids of Gpa1 are replaced with the C-terminal 5 amino acids of human Gαi3 (as described in Brown et al. (2000), Yeast 16:11-22). Cells were grown at 30° C. in liquid Synthetic Complete (SC) yeast media (Guthrie and Fink (1991), Methods in Enzymology, Vol. 194) lacking uracil, tryptophan, adenine and leucine to late logarithmic phase (approximately 6 OD600/ml).
# Agonists were prepared as 10 mM stocks in DMSO. EC50 values (the concentration required to produce 50% maximal response) were estimated using dilutions of between 3- and 5-fold (BiomekFX, Beckman) into DMSO. Agonist solutions in DMSO (1% final assay volume) were transferred into black, clear bottom, microtitre plates from NUNC (96- or 384-well). Cells were suspended at a density of 0.2 OD600/ml in SC media lacking histidine, uracil, tryptophan, adenine and leucine and supplemented with 10 mM 3-aminotriazole, 0.1M sodium phosphate pH 7.0, and […] fluorescein di-β-D-glucopyranoside (FDGlu). This mixture (50 ul per well for 384-well plates, 200 ul per well for 96-well plates) was added to agonist in the assay plates (Multidrop 384, Labsystems). After incubation at 30° C. for 24 hours, fluorescence resulting from degradation of FDGlu to fluorescein due to exoglucanase, an endogenous yeast enzyme produced during agonist-stimulated cell growth, was determined using a Spectrofluor microtitre plate reader (Tecan; excitation wavelength: 485 nm; emission wavelength: 535 nm). Fluorescence was plotted against compound concentration and iteratively curve fitted using a four parameter fit to generate a concentration effect value. Efficacy (Emax) was calculated from the equation
# Emax=Max[compound X]−Min[compound X]/Max[HU210]−Min[HU210]×100%
# where Max[compound X] and Min[compound X] are the fitted maximum and minimum respectively from the concentration effect curve for compound X, and Max[HU210] and Min[HU210] are the fitted maximum and minimum respectively from the concentration effect curve for (6aR,10aR)-3-1,1′-Dimethylheptyl)-6a,7,10,10a-tetrahydro-1-hydroxy-6,6-dimethyl-6H-dibenzo[b,d]pyran-9-methanol (HU210; available from Tocris). Equieffective molar ratio (EMR) values were calculated from the equation
# Where EC50[compound X] is the EC50 of compound X and EC50[HU210] is the EC50 of HU210.
# [1] = yeast agonist assay, read-out: EC50 at the cloned human cannabinoid CB2 receptor
smiles,measurement,setting,value
"COCCNCc1cnc(Nc2cccc(Cl)c2)nc1C(C)C [Example 9, (3-Chloro-phenyl)-{4-isopropyl-5-[(2-methoxy-ethylamino)-methyl]-pyrimidin-2-yl}-amineformate]",pEC50,[1],> 6.52
same,Emax,yeast agonist assay,> 50%
"FC(F)(F)c1nc(Nc2cccc(Cl)c2)ncc1CNCC1CCCCC1 [Example 12, (3-Chlorophenyl)-{[5-(cyclohexylmethylamino)-methyl]-4-trifluoromethyl-pyrimidin-2yl}-amine]",Emax,,> 50%
same,pEC50,[1],6.00 to 6.52
"FC(F)(F)c1nc(Nc2cccc(Cl)c2)ncc1CNCC1CCC1 [Example 18, (3-Chlorophenyl)-{5-[(cyclobutylmethylamino)-methyl]-4-trifluoromethyl-pyrimidin-2-yl}-amine,formate]",pEC50,[1],> 6.52
same,Emax,yeast agonist assay,> 50%
"CC(C)(C)c1nc(Nc2cccc(Cl)c2)ncc1CNCC1CCOCC1 [Example 99, (4-tert-Butyl-5-{[(tetrahydro-pyran-4-ylmethyl)-amino]-methyl}-pyrimidin-2-yl)-(3-chloro-phenyl)-aminehydrochloride]",pEC50,[1],> 6.52
same,Emax,yeast agonist assay,> 50%
"CC(NC1CC1)c1cnc(Nc2cccc(F)c2)nc1C(F)(F)F (stereo not drawn) [Example 86, (3-Fluorophenyl)-[5-(1-cyclopropylamino-ethyl)-4-trifluoromethyl-pyrimidin-2-yl]-amine]",pEC50,,> 6.52
same,Emax,,> 50%
"CC(C)CCNCc1cnc(Nc2cccc(Cl)c2)nc1C(F)(F)F [Example 24, (3-Chlorophenyl)-{5-[(3-methylbutylamino)-methyl]-4-trifluoromethyl-pyrimidin-2-yl}-amine,formate]",pEC50,[1],> 6.52
same,Emax,yeast agonist assay,> 50%
CC(NC1CC1)c1cnc(Nc2cccc(Cl)c2)nc1C(F)(F)F (stereo not drawn) [Example 85],pEC50,,> 6.52
same,Emax,,> 50%
FC(F)(F)c1nc(Nc2cccc(Cl)c2)ncc1CNC1CCCC1 [Example 34],pEC50,,> 6.52
same,Emax,,> 50%
"Clc1cccc(Nc2ncc(CNC3CCC3)c(C3CC3)n2)c1 [Example 1, (3-Chloro-phenyl)-(5-cyclobutylaminomethyl-4-cyclopropyl-pyrimidin-2-yl)-amine]",pEC50,[1],> 6.52
same,Emax,yeast agonist assay,> 50%
"CCCNCc1cnc(Nc2cccc(Cl)c2)nc1C(F)(F)F [Example 19, (3-Chlorophenyl)-(5-propylaminomethyl-4-trifluoromethyl-pyrimidin-2-yl)-amine,formate]",pEC50,[1],> 6.52
same,Emax,yeast agonist assay,> 50%
"FC(F)(F)c1nc(Nc2ccc(Cl)cc2Cl)ncc1CNCC1CCC1 [Example 29, (2,4-Dichlorophenyl)-{5-[(cyclobutylmethylamino)-methyl]-4-trifluoromethyl-pyrimidin-2-yl}-amine,formate]",pEC50,[1],> 6.52
same,Emax,yeast agonist assay,> 50%
"CC(NCC1CCCC1)c1cnc(Nc2cccc(Cl)c2)nc1C(F)(F)F (stereo not drawn) [Example 90, (3-Chlorophenyl)-{5-[1-(cyclopentylmethyl-amino)-ethyl]-4-trifluoromethyl-pyrimidin-2-yl}-amine, formate]",pEC50,[1],> 6.52
same,Emax,yeast agonist assay,> 50%
"FC(F)(F)c1nc(Nc2cccc(Cl)c2)ncc1CNCC1CCOCC1 [Example 15, (3-Chlorophenyl)-(5-{[(tetrahydro-pyran-4-ylmethyl)-amino]-methyl}-4-trifluoromethyl-pyrimidin-2-yl)-amine,formate]",pEC50,[1],> 6.52
same,Emax,yeast agonist assay,> 50%
"CC(NCC1CCCCC1)c1cnc(Nc2ccc(Cl)cc2Cl)nc1C(F)(F)F (stereo not drawn) [Example 95, (2,4-Dichlorophenyl)-{5-[1-(cyclohexyhnethyl-amino)-ethyl]-4-trifluoromethyl-pyrimidin-2-yl}-amine]",pEC50,,> 6.52
same,Emax,,> 50%
"Clc1cccc(Nc2ncc(CNCC3CC3)c(C3CC3)n2)c1 [Example 3, (3-Chloro-phenyl)-{4-cyclopropyl-5-[(cyclopropylmethyl-amino)-methyl]-pyrimidin-2-yl}-amineacetate]",pEC50,[1],> 6.52
same,Emax,yeast agonist assay,> 50%
"CC(NCC1CC1)c1cnc(Nc2cccc(F)c2)nc1C(F)(F)F (stereo not drawn) [Example 94, (3-Fluorophenyl)-{5-[1-(cyclopropylmethyl-amino)-ethyl]-4-trifluoromethyl-pyrimidin-2-yl}-amine, formate]",pEC50,[1],> 6.52
same,Emax,yeast agonist assay,> 50%
"COCCNCc1cnc(Nc2cccc(Cl)c2)nc1C(F)(F)F [Example 17, (3-Chlorophenyl)-{5-[(2-methoxy-ethylamino)-methyl]-4-trifluoromethyl-pyrimidin-2-yl}-amine, formate]",pEC50,[1],> 6.52
same,Emax,yeast agonist assay,> 50%
"CC(C)CNC(C)c1cnc(Nc2cccc(Cl)c2)nc1C(F)(F)F (stereo not drawn) [Example 92, (3-Chlorophenyl)-[5-(1-isobutylamino-ethyl)-4-trifluoromethyl-pyrimidin-2-yl]-amine, formate]",pEC50,[1],> 6.52
same,Emax,yeast agonist assay,> 50%
"COCCNCc1cnc(Nc2ccc(Cl)cc2Cl)nc1C(F)(F)F [Example 33, (2,4-Dichlorophenyl)-{5-[(2-methoxy-ethylamino)-methyl]-4-trifluoromethyl-pyrimidin-2-yl}-amine]",pEC50,[1],> 6.52
same,Emax,yeast agonist assay,> 50%
"FC(F)(F)c1nc(Nc2ccc(Cl)cc2Cl)ncc1CNCC1CC1 [Example 28, (2,4-Dichlorophenyl)-{5-[(cyclopropylmethylamino)-methyl]-4-trifluoromethyl-pyrimidin-2-yl}-amine]",pEC50,,> 6.52
same,Emax,,> 50%
"FC(F)(F)c1nc(Nc2ccc(Cl)cc2Cl)ncc1CN1CCOCC1 [Example 35, (2,4-Dichlorophenyl)-(5-morpholin-4-ylmethyl-4-trifluoromethyl-pyrimidin-2-yl)-amine]",pEC50,,> 6.52
same,Emax,,> 50%
"COCCNCc1cnc(Nc2cccc(Cl)c2)nc1C(C)(C)C [Example 101, (4-tert-Butyl-5-[(2-methoxy-ethylamino)-methyl]-pyrimidin-2-yl}-(3-chloro-phenyl)-aminehydrochloride]",Emax,,> 50%
same,pEC50,[1],> 6.52
"FC(F)(F)c1nc(Nc2cccc(Cl)c2)ncc1CNCCc1ccccc1 [Example 45, (3-Chlorophenyl)-[5-(phenethylamino-methyl)-4-trifluoromethyl-pyrimidin-2-yl]-amine, formate]",Emax,,> 50%
same,pEC50,[1],6.00 to 6.52
"CC(C)c1nc(Nc2cccc(Cl)c2)ncc1CN1CCOCC1 [Example 6, (3-Chloro-phenyl)-(4-isopropyl-5-morpholin-4-ylmethyl-pyrimidin-2-yl)-amine]",pEC50,[1],> 6.52
same,Emax,yeast agonist assay,> 50%
"CN(Cc1cnc(Nc2cccc(Cl)c2)nc1C(F)(F)F)CC1CCOCC1 [Example 42, (3-Chlorophenyl)-(5-{[methyl-(tetrahydro-pyran-4-ylmethyl)-amino]-methyl}-4-trifluoromethyl-pyrimidin-2-yl)-amine]",Emax,,> 50%
same,pEC50,[1],6.00 to 6.52
"Fc1ccc(CNCc2cnc(Nc3cccc(Cl)c3)nc2C(F)(F)F)cc1 [Example 41, (3-Chlorophenyl)-{5-[(4-fluorobenzylamino)-methyl]-4-trifluoromethyl-pyrimidin-2-yl)-amine,formate]",Emax,,> 50%
same,pEC50,[1],6.00 to 6.52
"Fc1ccc(Nc2ncc(CNCC3CC3)c(C(F)(F)F)n2)cc1Cl [Example 13, (3-Chloro-4-fluoro-phenyl)-{5-[(cyclopropylmethyl-amino)-methyl]-4-trifluoromethyl-pyrimidin-2-yl}-amine hydrochloride]",pEC50,,> 6.52
same,Emax,,> 50%
"FC(F)(F)c1nc(Nc2cccc(Cl)c2)ncc1CNCC1CCCC1 [Example 10, (3-Chlorophenyl){5-[(cyclopentylmethylamino)-methyl]-4 trifluoromethyl-pyrimidin-2-yl}-amine, formate]",pEC50,[1],> 6.52
same,Emax,yeast agonist assay,> 50%
"CN(C)Cc1cnc(Nc2cccc(Cl)c2)nc1C(F)(F)F [Example 44, (3-Chlorophenyl)-(5-dimethylaminomethyl-4-trifluoromethyl-pyrimidin-2-yl)-amine, formate]",Emax,,> 50%
same,pEC50,[1],6.00 to 6.52
"FC(F)(F)c1nc(Nc2cccc(Cl)c2)ncc1CN1CCCC1 [Example 40, (3-Chlorophenyl)-(5-pyrrolidin-1-ylmethyl-4-trifluoromethyl-pyrimidin-2-yl)-amine, formate]",Emax,,> 50%
same,pEC50,[1],6.00 to 6.52
